# Assay results reported in US10828289B2, “Hair follicle stem cell activation and hair growth” (THE REGENTS OF THE UNIVERSITY OF CALIFORNIA, priority 2016, dated 2020).
# “Also recorded” adds a separate entry of the source.
# How the values were obtained:
# Format in all cases: in vivo, mouse
# hair cycle = test: Topical treatment of shaved animals in telogen (day 50), hair cycle observation
# Source text: Mice. Animals were acquired from Jackson Labs (K15-CrePR, Lgr5-CreER and Lgr6-CreER), Rutter Lab (Mpc^fl/fl) and Seth Lab (Ldha^fl/fl) and maintained under conditions set forth by IUCUC and ARC. For experiments that include analysis of the telogen stage of the hair cycle, animals were harvested at post-natal day 50, for telogen-anagen transition animals were harvested at day 70, and for anagen animals were harvested at post-natal day 90. For experiments that include analysis of transgenic animals, K15-CrePR animals were shaved and treated by intraperitoneal injections of mifepristone and Lgr5-CreER and Lgr6-CreER animals were shaved and treated with tamoxifen (10 mg/ml dissolved in sunflower seed oil, 2 mg per day for 3 days) during telogen (post-natal day 50), and monitored for hair regrowth following shaving. For FIGS. 6A-6G, wildtype C57BL/6J animals were shaved at post-natal day 50 and treated topically with Transderma Plo Gel Ultramax Base (TR220) (vehicle) or RCGD423 (50 uM) for indicated periods of time. Both male and female animals were used in this study in approximately equal numbers with no apparent difference in phenotype between genders. All phenotypes described are representative of a minimum of n=3 littermate pairs as indicated in the description of each experiment. No statistical measure was used to determine the sample size beforehand, nor were statistics used to measure effects, as the results were essentially positive or negative as represented in the figures. The results described include data from all treated animals. The investigators were not blinded to allocation during the experimental data collection, nor were the experiments randomized. The results shown were representative images from at least three independently treated animals, and genotyping was performed both before and after animal treatment for confirmation.
# c-Myc = test: Immunoblotting of total protein preps from topically treated skin: c-Myc; details: 2 topical doses of 50 uM (48 hours), vs vehicle control
# Source text: (§1) Mice. Animals were acquired from Jackson Labs (K15-CrePR, Lgr5-CreER and Lgr6-CreER), Rutter Lab (Mpc^fl/fl) and Seth Lab (Ldha^fl/fl) and maintained under conditions set forth by IUCUC and ARC. For experiments that include analysis of the telogen stage of the hair cycle, animals were harvested at post-natal day 50, for telogen-anagen transition animals were harvested at day 70, and for anagen animals were harvested at post-natal day 90. For experiments that include analysis of transgenic animals, K15-CrePR animals were shaved and treated by intraperitoneal injections of mifepristone and Lgr5-CreER and Lgr6-CreER animals were shaved and treated with tamoxifen (10 mg/ml dissolved in sunflower seed oil, 2 mg per day for 3 days) during telogen (post-natal day 50), and monitored for hair regrowth following shaving. For FIGS. 6A-6G, wildtype C57BL/6J animals were shaved at post-natal day 50 and treated topically with Transderma Plo Gel Ultramax Base (TR220) (vehicle) or RCGD423 (50 uM) for indicated periods of time. Both male and female animals were used in this study in approximately equal numbers with no apparent difference in phenotype between genders. […]
# (§2) Histology, Immunostaining and Immunoblotting. […] Images were collected on an Olympus BX43 Upright Microscope and Zeiss Model Axio Imager M1 Upright Fluorescence Microscope. […]
# n-Myc = test: Immunoblotting of total protein preps from topically treated skin: n-Myc; details: 2 topical doses of 50 uM (48 hours), vs vehicle control
# Source text: as §1, §2
# HFSCs = test: Immunohistochemistry for Ki-67 in HFSCs after topical treatment; details: same tissue
# Source text: as §1, §2
# Ldha = test: Immunoblotting of total protein preps from topically treated skin: Ldha; details: 2 topical doses of 50 uM (48 hours), vs vehicle control
# Source text: as §1, §2
# pStat5 = test: IHC for pStat5 in topically treated skin; details: topical, shaved mice day 50, skin harvested 48 hours after treatment
# Protocol: (§3) FIG. 5. Stimulation of Jak-Stat signaling and the hair cycle. RCGD423 was applied topically to shaved mice at day 50. 48 hours after treatment, the skin was harvested and prepared for IHC. […] Scale bars indicate 20 micrometers.
# as §1, with “shaving.” for “shaving. For FIGS. 6A-6G, wildtype C57BL/6J animals were shaved at post-natal day 50 and treated topically with Transderma Plo Gel Ultramax Base (TR220) (vehicle) or RCGD423 (50 uM) for indicated periods of time. Both male and female animals were used in this study in approximately equal numbers with no apparent difference in phenotype between genders.”
# as §2
# Stat-3 = test: Immunostaining with phospho-Stat3 antibody in HFSCs after topical treatment
# Source text: as §1, §2
# Ldh [1] = test: Plate-reader Ldh activity assay on lysates from total epidermis after topical treatment; details: vs vehicle
# Source text: as §1, with “shaving.” for “shaving. For FIGS. 6A-6G, wildtype C57BL/6J animals were shaved at post-natal day 50 and treated topically with Transderma Plo Gel Ultramax Base (TR220) (vehicle) or RCGD423 (50 uM) for indicated periods of time. Both male and female animals were used in this study in approximately equal numbers with no apparent difference in phenotype between genders.”
# Plate-reader Ldh assay. Ldh activity was determined in cell lysates by measuring the formation of soluble XTT formazan in direct relation to production of NADH over time at 475 nm at 37° C. using a Synergy-MX plate reader (Biotek Instruments). […] Protein content was determined using the BCA Protein Assay Kit (Thermo Scientific Pierce). […] Ldh activity was determined in cell lysates by measuring the change in absorbance of their common substrate or product, NADH, over time at 340 nm at 25° C. using a Synergy-MX plate reader (Biotek Instruments).
# lactate = test: LC-MS-based metabolomics of lactate after topical treatment; details: 48 hours, vs vehicle
# Source text: as §1, with “time.” for “time. Both male and female animals were used in this study in approximately equal numbers with no apparent difference in phenotype between genders.”
# Mass spectrometry-based metabolomics analysis. […] The samples were analyzed with an UltiMate 3000RSLC (Thermo Scientific) coupled to a Q Exactive mass spectrometer (Thermo Scientific). […] Metabolites were quantified with TraceFinder 3.3 using accurate mass measurements (<3 ppm) and retention times.
# Ldh [2] = test: In situ Ldh activity staining of skin sections after topical treatment; details: epidermis and dermis
# Source text: as §1, with “genders. All phenotypes described are representative of a minimum of n=3 littermate pairs as indicated in the description of each experiment.” for “genders.”
# pStat1 = test: IHC for pStat1 in topically treated skin; details: topical, shaved mice day 50, skin harvested 48 hours after treatment
# Protocol: as §3
# as §1, with “shaving.” for “shaving. For FIGS. 6A-6G, wildtype C57BL/6J animals were shaved at post-natal day 50 and treated topically with Transderma Plo Gel Ultramax Base (TR220) (vehicle) or RCGD423 (50 uM) for indicated periods of time. Both male and female animals were used in this study in approximately equal numbers with no apparent difference in phenotype between genders.”
# as §2
# [3] = topical treatment of animals in telogen (day 50)
structure (smiles),measurement,setting,value
Brc1ccc(Nc2nc(-c3ccccc3)cs2)cc1 [RCGD423],hair cycle,hair cycle; [3],robust acceleration of the hair cycle
same,interfollicular epidermis proliferation,hair cycle; [3],minor hyperproliferation of the interfollicular epidermis
same,observed phenotype (entry into anagen),"hair cycle; topical, 50 uM, after 5 doses","pigmentation and hair growth, indicative of entry into anagen"
same,c-Myc protein levels,c-Myc,increased; also recorded: induced
same,n-Myc protein levels,n-Myc,increased; also recorded: induced
same,Ki-67 in HFSCs,HFSCs,induction
same,Ldha protein levels,Ldha,increased; also recorded: induced
same,effect on pStat5,pStat5,does not dramatically affect
same,Stat-3 activation (phospho-Stat3 immunostaining),Stat-3,activated
same,"Ldh activity, in vitro measurement on lysates from total epidermis",Ldh [1],increase in activity
same,lactate level,lactate,large increase
same,"Ldh activity, in situ staining",Ldh [2],strong induction
same,effect on pStat1,pStat1,does not dramatically affect
